Laboratory results as given in ChEMBL document CHEMBL1240358, “Activity of a new antipseudomonal cephalosporin, CXA-101 (FR264205), against carbapenem-resistant and multidrug-resistant Pseudomonas aeruginosa clinical strains” (2010).
Converted amounts (≈) assume the structure as drawn.

Legend:
Assay type in all cases: functional
[1] = tested on: Pseudomonas aeruginosa; experiment: Antibacterial activity against carbapenem-resistant Pseudomonas aeruginosa isolate 1C3 PTOL1 harboring acquired beta-lactamase OXA-17 by broth microdilution method
[2] = tested on: Pseudomonas aeruginosa; experiment: Antibacterial activity against carbapenem-resistant Pseudomonas aeruginosa isolate 3C8 GM1 harboring acquired beta-lactamase OXA-144 by broth microdilution method
[3] = tested on: Pseudomonas aeruginosa; experiment: Antibacterial activity against Pseudomonas aeruginosa PAO1 harboring acquired beta-lactamase OXA-144 by broth microdilution method
[4] = tested on: Pseudomonas aeruginosa; experiment: Antibacterial activity against Pseudomonas aeruginosa assessed as percent nonsusceptible isolates by broth microdilution assay
[5] = tested on: Pseudomonas aeruginosa; experiment: Antibacterial activity against carbapenem-resistant Pseudomonas aeruginosa isolate 1E1 PpA1 harboring acquired beta-lactamase OXA-144 by broth microdilution method
[6] = tested on: Pseudomonas aeruginosa; experiment: Antibacterial activity against carbapenem-resistant Pseudomonas aeruginosa isolate 1C2 PTOL1 harboring beta-lactamase OXA-17 by broth microdilution method
[7] = tested on: Pseudomonas aeruginosa; experiment: Antibacterial activity against carbapenem-resistant Pseudomonas aeruginosa isolate 1E3 PpA2 harboring acquired beta-lactamase OXA-101 by broth microdilution method
[8] = tested on: Pseudomonas aeruginosa; experiment: Antibacterial activity against carbapenem-resistant Pseudomonas aeruginosa isolate 3C1 VAL6 by broth microdilution method
[9] = tested on: Pseudomonas aeruginosa; experiment: Antibacterial activity against Pseudomonas aeruginosa PAO1 harboring acquired beta-lactamase OXA-2 by broth microdilution method
[10] = tested on: Pseudomonas aeruginosa; experiment: Antibacterial activity against carbapenem-resistant Pseudomonas aeruginosa isolate 3D2 GM2 harboring acquired beta-lactamase BEL-3 by broth microdilution method
[11] = tested on: Pseudomonas aeruginosa; experiment: Antibacterial activity against carbapenem-resistant Pseudomonas aeruginosa isolate 3C9 GM1 harboring acquired beta-lactamase OXA-144 by broth microdilution method
[12] = tested on: Pseudomonas aeruginosa; experiment: Antibacterial activity against carbapenem-resistant Pseudomonas aeruginosa isolate 1D5 SA1 harboring acquired beta-lactamase VIM-2 by broth microdilution method
[13] = tested on: Pseudomonas aeruginosa; experiment: Antibacterial activity against Pseudomonas aeruginosa PAO1 by broth microdilution method
[14] = tested on: Pseudomonas aeruginosa; experiment: Antibacterial activity against carbapenem-resistant Pseudomonas aeruginosa isolate 1E2 PpA1 harboring acquired beta-lactamase OXA-144 by broth microdilution method
[15] = tested on: Pseudomonas aeruginosa; experiment: Antibacterial activity against carbapenem-resistant Pseudomonas aeruginosa isolate 1B2 RCA2 harboring acquired beta-lactamase PER-1 by broth microdilution method

For CO/N=C(\C(=O)N[C@@H]1C(=O)N2C(C(=O)[O-])=C(C[N+]3(C)CCCC3)CS[C@H]12)c1csc(N)n1, the MIC [1] was > 64 µg/mL, the MIC [2] was 4 µg/mL (≈ 8.32 µM) and the MIC [3] was 8 µg/mL (≈ 16.6 µM). The Activity [4] was 68.2%, the MIC [5] was 16 µg/mL (≈ 33.3 µM) and the MIC [6] was > 64 µg/mL. The MIC [7] was > 64 µg/mL, the MIC [8] was 64 µg/mL (≈ 133 µM) and the MIC [9] was 2 µg/mL (≈ 4.16 µM). It also gave an MIC [10] of 32 µg/mL (≈ 66.6 µM), an MIC [11] of 4 µg/mL (≈ 8.32 µM) and an MIC [12] of 16 µg/mL (≈ 33.3 µM). It also gave an MIC [13] of 1 µg/mL (≈ 2.08 µM) and an MIC [14] of 32 µg/mL (≈ 66.6 µM).
NCC[C@H](O)C(=O)N[C@@H]1C[C@H](N)[C@@H](O[C@H]2O[C@H](CN)[C@@H](O)[C@H](O)[C@H]2O)[C@H](O)[C@H]1O[C@H]1O[C@H](CO)[C@@H](O)[C@H](N)[C@H]1O [AMIKACIN] gave an MIC [15] of 1 µg/mL (≈ 1.71 µM), an MIC [1] of 32 µg/mL (≈ 54.6 µM) and an MIC [2] of 4 µg/mL (≈ 6.83 µM). For the same compound, the Activity [4] was 18.6%, the MIC [5] was 16 µg/mL (≈ 27.3 µM) and the MIC [6] was 32 µg/mL (≈ 54.6 µM). The MIC [7] was 32 µg/mL (≈ 54.6 µM), the MIC [8] was 2 µg/mL (≈ 3.42 µM) and the MIC [10] was 8 µg/mL (≈ 13.7 µM). For the same compound, the MIC [11] was 4 µg/mL (≈ 6.83 µM), the MIC [12] was 16 µg/mL (≈ 27.3 µM) and the MIC [14] was 32 µg/mL (≈ 54.6 µM).
C[C@@H](O)[C@H]1C(=O)N2C(C(=O)O)=C(S[C@@H]3CN[C@H](C(=O)N(C)C)C3)[C@H](C)[C@H]12 [MEROPENEM] gave an MIC [15] of 16 µg/mL (≈ 41.7 µM), an MIC [2] of 4 µg/mL (≈ 10.4 µM) and an MIC [3] of 0.5 µg/mL (≈ 1.3 µM). It also gave an Activity [4] of 52.1%, an MIC [5] of 16 µg/mL (≈ 41.7 µM) and an MIC [8] of 4 µg/mL (≈ 10.4 µM). It also gave an MIC [9] of 0.5 µg/mL (≈ 1.3 µM), an MIC [10] of 4 µg/mL (≈ 10.4 µM) and an MIC [11] of 4 µg/mL (≈ 10.4 µM). It also gave an MIC [12] of 16 µg/mL (≈ 41.7 µM), an MIC [13] of 0.25 µg/mL (≈ 0.652 µM) and an MIC [14] of 32 µg/mL (≈ 83.4 µM).
In the case of NC[C@H]1O[C@H](O[C@H]2[C@H](O)[C@@H](O[C@H]3O[C@H](CO)[C@@H](O)[C@H](N)[C@H]3O)[C@H](N)C[C@@H]2N)[C@H](N)C[C@@H]1O [TOBRAMYCIN], the MIC [15] is reported as < 0.12 µg/mL, the MIC [1] is reported as 64 µg/mL (≈ 137 µM) and the MIC [2] is reported as 16 µg/mL (≈ 34.2 µM). For the same compound, the Activity [4] was 33.9%, the MIC [5] was 64 µg/mL (≈ 137 µM) and the MIC [6] was 32 µg/mL (≈ 68.4 µM). The MIC [7] was > 64 µg/mL, the MIC [8] was < 0.12 µg/mL and the MIC [10] was 8 µg/mL (≈ 17.1 µM). It also gave an MIC [11] of 16 µg/mL (≈ 34.2 µM), an MIC [12] of 64 µg/mL (≈ 137 µM) and an MIC [14] of 64 µg/mL (≈ 137 µM).
In the case of CCN1CCN(C(=O)N[C@@H](C(=O)N[C@@H]2C(=O)N3[C@@H]2SC(C)(C)[C@@H]3C(=O)O)c2ccccc2)C(=O)C1=O [PIPERACILLIN], the MIC [3] is reported as 16 µg/mL (≈ 30.9 µM), the Activity [4] is reported as 28.4% and the MIC [9] is reported as 32 µg/mL (≈ 61.8 µM). The MIC [13] was 4 µg/mL (≈ 7.73 µM).
